# Laboratory results published in patent publication US9605006B2, “5-aryl-1-imino-1-oxo-[1,2,4]thiadiazines” (Hoffmann-La Roche Inc., priority 2013, dated 2017).
# Target: BACE1 (Homo sapiens (Human), UniProt P56817)
# Assay: Cellular Aβ-lowering assay (Abeta 40 AlphaLISA Assay)
# Type: cell-based
# Conditions: HEK293 APP cells, Aβ40 in culture supernatant after 18-20 hrs incubation
# Protocol: Cellular Aβ-Lowering Assay:
# The Abeta 40 AlphaLISA Assay can be used. The HEK293 APP cells were seeded in 96 well Microtiter plates in cell culture medium (Iscove's, plus 10% (v/v) fetal bovine serum, penicillin/streptomycin) to about 80% confluency and the compounds were added at a 3× concentration in ⅓ volume of culture medium (final DMSO concentration was kept at 1% v/v). After 18-20 hrs incubation at 37° C. and 5% CO2 in a humidified incubator, the culture supernatants were harvested for the determination of Aβ40 concentrations using Perkin-Elmer Human Amyloid beta 1-40 (high specificity) Kit (Cat# AL275C).
# In a Perkin-Elmer White Optiplate-384 (Cat#6007290), 2 ul culture supernatants were combined with 2μl of a 10× AlphaLISA Anti-hAβAcceptor beads+Biotinylated Antibody Anti-Aβ1-40 Mix (50 μg/mL/5 nM). After 1 hour room temperature incubation, 16 μl of a 1.25× preparation of Streptavidin (SA) Donor beads (25 μg/mL) were added and incubated for 30 minutes in the Dark. Light Emission at 615 nm was then recorded using EnVision-Alpha Reader. Levels of Aβ40 in the culture supernatants were calculated as percentage of maximum signal (cells treated with 1% DMSO without inhibitor). The IC50 values were calculated using the Excel XLfit software.
# BACE1, sequence (P56817 46-501): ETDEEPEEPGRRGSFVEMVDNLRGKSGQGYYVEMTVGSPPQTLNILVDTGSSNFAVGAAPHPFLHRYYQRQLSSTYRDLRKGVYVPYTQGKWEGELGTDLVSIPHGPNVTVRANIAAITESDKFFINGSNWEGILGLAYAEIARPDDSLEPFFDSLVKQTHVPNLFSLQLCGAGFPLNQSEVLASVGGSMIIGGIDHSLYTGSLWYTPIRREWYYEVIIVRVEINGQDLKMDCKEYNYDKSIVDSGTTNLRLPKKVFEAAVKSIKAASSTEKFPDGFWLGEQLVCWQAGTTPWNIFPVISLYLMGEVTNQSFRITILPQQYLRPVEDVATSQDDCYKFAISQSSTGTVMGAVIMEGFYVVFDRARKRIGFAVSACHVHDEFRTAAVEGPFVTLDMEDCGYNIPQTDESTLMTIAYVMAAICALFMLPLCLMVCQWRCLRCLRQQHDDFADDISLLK
row,Structure (SMILES),IC50 [nM]
1,"C[C@@]1(c2cc(NC(=O)c3ccc(OCC(F)(F)F)cn3)ccc2F)CS2(=O)=NCCCCN2C(N)=N1 (stereo in doubt) [Example 21, 5-(2,2,2-Trifluoro-ethoxy)-pyridine-2-carboxylic acid [3-((3R,4aS)-1-amino-3-methyl-4a-oxo-3,4,6,7,8,9-hexahydro-4aλ^6-thia-2,5,9a-triaza-benzocyclohepten-3-yl)-4-fluoro-phenyl]-amide]",10
2,"CC#CCOc1cnc(C(=O)Nc2ccc(F)c([C@]3(C)CS4(=O)=NCCCCN4C(N)=N3)c2)cn1 (stereo in doubt) [Example 22, 5-But-2-ynyloxy-pyrazine-2-carboxylic acid [3-((3R,4aS)-1-amino-3-methyl-4a-oxo-3,4,6,7,8,9-hexahydro-4aλ^6-thia-2,5,9a-triaza-benzocyclohepten-3-yl)-4-fluoro-phenyl]-amide]",0.2
3,"Cc1cc(F)cnc1C(=O)Nc1ccc(F)c([C@]2(C)CS3(=O)=NCCCCN3C(N)=N2)c1 (stereo in doubt) [Example 23, 5-Fluoro-3-methyl-pyridine-2-carboxylic acid [3-((3R,4aS)-1-amino-3-methyl-4a-oxo-3,4,6,7,8,9-hexahydro-4aλ^6-thia-2,5,9a-triaza-benzocyclohepten-3-yl)-4-fluoro-phenyl]-amide]",1.5
4,"C[C@@]1(c2cc(-c3cc(-c4ncc(Cl)cn4)no3)ccc2F)C[S@@]2(=O)=NCCCCN2C(N)=N1 [Example 13, (9R,11R)-7-Amino-9-(5-(3-(5-chloropyrimidin-2-yl)isoxazol-5-yl)-2-fluorophenyl)-9-methyl-2,3,4,5,9,10-hexahydro-[1,2,4]thiadiazino[1,2-a][1,2,7]thiadiazepine 11-oxide 2,2,2-trifluoroacetate]",12
5,"C[C@@]1(c2cc(-c3cc(-c4ncc(Cl)cn4)no3)ccc2F)C[S@]2(=O)=NCCCCN2C(N)=N1 [Example 14, (9R,11S)-7-Amino-9-(5-(3-(5-chloropyrimidin-2-yl)isoxazol-5-yl)-2-fluorophenyl)-9-methyl-2,3,4,5,9,10-hexahydro-[1,2,4]thiadiazino[1,2-a][1,2,7]thiadiazepine 11-oxide 2,2,2-trifluoroacetate]",95
6,"COc1cnc(-c2cc(-c3ccc(F)c([C@]4(C)C[S@@]5(=O)=NCCCCN5C(N)=N4)c3)on2)cn1 [Example 17, (9R,11R)-7-Amino-9-(2-fluoro-5-(3-(5-methoxypyrazin-2-yl)isoxazol-5-yl)phenyl)-9-methyl-2,3,4,5,9,10-hexahydro-[1,2,4]thiadiazino[1,2-a][1,2,7]thiadiazepine 11-oxide 2,2,2-trifluoroacetate]",9
7,"COc1cnc(-c2cc(-c3ccc(F)c([C@]4(C)C[S@]5(=O)=NCCCCN5C(N)=N4)c3)on2)cn1 [Example 18, (9R,11S)-7-amino-9-(2-fluoro-5-(3-(5-methoxypyrazin-2-yl)isoxazol-5-yl)phenyl)-9-methyl-2,3,4,5,9,10-hexahydro-[1,2,4]thiadiazino[1,2-a][1,2,7]thiadiazepine 11-oxide 2,2,2-trifluoroacetate]",694
8,"C[C@@]1(c2cc(-c3cc(-c4cnc(OCC(F)F)cn4)no3)ccc2F)C[S@@]2(=O)=NCCCCN2C(N)=N1 [Example 19, (9R,11R)-7-Amino-9-(5-(3-(5-(2,2-difluoroethoxy)pyrazin-2-yl)isoxazol-5-yl)-2-fluorophenyl)-9-methyl-2,3,4,5,9,10-hexahydro-[1,2,4]thiadiazino[1,2-a][1,2,7]thiadiazepine 11-oxide 2,2,2-trifluoroacetate]",14
9,"Cc1cc(C#N)cnc1C(=O)Nc1ccc(F)c([C@]2(C)CS3(=O)=NCC(F)(F)CN3C(N)=N2)c1 (stereo partly drawn) [Example 25, N-(3-((8R)-6-amino-3,3-difluoro-8-methyl-10-oxido-3,4,8,9-tetrahydro-2H-[1,2,6]thiadiazino[1,2-a][1,2,4]thiadiazin-8-yl)-4-fluorophenyl)-5-cyano-3-methylpicolinamide]",2

# More lines, now with the values ahead:
row,IC50 [nM],Structure (SMILES)
1,45,"CC1(c2cc(NC(=O)c3ccc(C#N)cn3)ccc2F)CS2(=O)=NCCCCN2C(N)=N1 (stereo in doubt) [Example 1, 5-cyano-pyridine-2-carboxylic acid [3-((3RS,4aRS)-1-amino-3-methyl-4a-oxo-3,4,6,7,8,9-hexahydro-4aλ^6-thia-2,5,9a-triaza-benzocyclohepten-3-yl)-4-fluoro-phenyl]-amide]"
2,2,"CC1(c2cc(NC(=O)c3ccc(C#N)cn3)ccc2F)CS2(=O)=NCCCCN2C(N)=N1 (stereo in doubt) [Example 2, 5-cyano-pyridine-2-carboxylic acid [3-((3RS,4aSR)-1-amino-3-methyl-4a-oxo-3,4,6,7,8,9-hexahydro-4aλ^6-thia-2,5,9a-triaza-benzocyclohepten-3-yl)-4-fluoro-phenyl]-amide]"
3,1,"C[C@@]1(c2cc(NC(=O)c3ncc(C#N)cc3Cl)ccc2F)CS2(=O)=NCCCCN2C(N)=N1 (stereo in doubt) [Example 20, 3-Chloro-5-cyano-pyridine-2-carboxylic acid [3-((3R,4aS)-1-amino-3-methyl-4a-oxo-3,4,6,7,8,9-hexahydro-4aλ^6-thia-2,5,9a-triaza-benzocyclohepten-3-yl)-4-fluoro-phenyl]-amide]"
4,1040,"CC1(c2ccccc2F)CS2(=O)=NCCCCN2C(N)=N1 (stereo in doubt) [Example A20a2, (3RS,4aSR)-3-(2-Fluoro-phenyl)-3-methyl-4a-oxo-3,4,6,7,8,9-hexahydro-4aλ^6-thia-2,5,9a-triaza-benzocyclohepten-1-ylamine]"
5,95,"C[C@@]1(c2cc(-c3cn(-c4ccc(C#N)cn4)nn3)ccc2F)C[S@]2(=O)=NCCCCN2C(N)=N1 [Example 15, 6-(4-(3-((9R,11S)-7-Amino-9-methyl-11-oxido-2,3,4,5,9,10-hexahydro-[1,2,4]thiadiazino[1,2-a][1,2,7]thiadiazepin-9-yl)-4-fluorophenyl)-1H-1,2,3-triazol-1-yl)nicotinonitrile 2,2,2-trifluoroacetate]"
6,21,"C[C@@]1(c2cc(C#Cc3ccc(C#N)cc3)ccc2F)C[S@@]2(=O)=NCCCCN2C(N)=N1 [Example 16, 4-((3-((9R,11R)-7-amino-9-methyl-11-oxido-2,3,4,5,9,10-hexahydro-[1,2,4]thiadiazino[1,2-a][1,2,7]thiadiazepin-9-yl)-4-fluorophenyl)ethynyl)benzonitrile 2,2,2-trifluoroacetate]"
